Patent US20140066362A1, “METHOD FOR TREATING INFECTIONS BY TARGETING MICROBIAL H2S-PRODUCING ENZYMES” (NEW YORK UNIVERSITY, priority 2011, published 2014)
Like-named read-outs stand apart in the source and are kept apart here.

How the values were obtained:
pBR322 plasmid DNA = experiment: Electrophoresis assay of DNA damage in vitro (Fenton reaction); conditions: NaHS:Fe3+ 6:1, with Cys and H2O2, pH 8
recA′::gfp E. coli = format: cell-based; conditions: NaHS 200 μM, aspartate-treated cells
Wt E. coli cells = format: cell-based; conditions: then H2O2 2 mM for 10 min
CBS/CSE = format: cell-based, B. anthracis, S. aureus, P. aeruginosa; conditions: chemical inhibition of CSE (PAG) or CBS (AOAA), 18 hours culture
E. faecalis ATCC29212 = experiment: MIC of antibiotics with or without PAG/AOAA; format: cell-based; conditions: for MIC: Enterococcus faecalis
Experimental: Bacterial cultures were prepared at initial inoculums of ˜5×10^5 CFU/ml, and aliquots of 190 μl per well were dispensed. Ten μl of the indicated antibiotic solutions were added to each well. The starting concentration for each antibiotic solution was 2×MIC, with serial ½ dilutions. Two sets of dilutions were prepared, and 0.1 mM AOAA was added to one set. The plates were kept at 37° C. and 85% humidity for 20 hours.
(§1) E. faecalis (ATCC 29212) cultures were prepared at initial inoculums of ˜5×10^5 CFU/ml in Mueller-Hinton II Broth (cation-adjusted). Aliquots of 190 μl were dispensed to each well of a fresh set of plates, and 10 μl of an antibiotic solution (levofloxacin, meropenem, gentamicin, piperacillin, linezolid, cefepime, daptomycin, vancomycin, or chloramphemicol) were transferred to the corresponding wells in each bacterial plate (FIG. 13). For each antibiotic, the starting concentration was 2×MIC (minimum inhibitory concentration) with serial ½ dilutions. Two sets of dilutions were prepared, and to one of them 0.1 mM AOAA was added. The resulting plates were kept at 37° C. and 85% humidity for 20 hours. All nine antibiotics tested were potentiated by AOAA, with respective MICs dropped from 8-fold to 32-fold (FIG. 13).
(§2) Minimum inhibitory concentration (MIC) determination was conducted as described in Example 7, above. To assess antibiotic potentiation by AOAA and PAG, MIC was determined for nine antibiotics (levofloxacin, meropenem, gentamicin, piperacillin, linezolid, cefepime, daptomycin, vancomycin, and chloramphemicol) and four bacterial strains (E. faecium (A2373), E. faecalis ([…]), S. pneumoniae (ATCC 49619), and P. aeruginosa (PAO1)) in the presence of antibiotic alone, 1 mM PAG, 0.1 mM AOAA, or 0.5 mM PAG+0.05 mM AOAA. The smaller the MIC value, the stronger the effect of antibiotic potentiation.

E. faecium A2373 = experiment: MIC of antibiotics with or without PAG/AOAA; format: cell-based; conditions: for MIC: Enterococcus faecium
Experimental: as §1, §2

[1] = system: E. coli ΔsseA (3MST-deficient) strain; format: cell-based; conditions: Table 1; relative values of growth inhibition (negative numbers), ΔsseA vs wt E. coli
P. aeruginosa PAO1 = experiment: MIC of antibiotics with or without PAG/AOAA; format: cell-based; conditions: for MIC: Pseudomonas aeruginosa
Experimental: as §2

S. pneumoniae ATCC49619 = experiment: MIC of antibiotics with or without PAG/AOAA; format: cell-based; conditions: for MIC: Streptococcus pneumoniae
Experimental: as §2

[2] = system: 3MST-deficient E. coli cells; format: cell-based; conditions: diamide 25 μM, gentamicin 50 μg/ml for 5 min
E. coli cells = format: cell-based; conditions: pretreatment for 3 min, 2,2′-dipyridyl 0.05 mM or thiourea 15 mM, then Gm
[3] = ATCC29212, antibiotic alone, read-out: Minimum inhibitory concentration
[4] = in the presence of 0.5 mM PAG + 0.05 mM AOAA
[5] = A2373, antibiotic alone, read-out: Minimum inhibitory concentration
[6] = PAO1, antibiotic alone, read-out: Minimum inhibitory concentration
[7] = ATCC49619, antibiotic alone, read-out: Minimum inhibitory concentration

| Compound | Minimum inhibitory concentration (E. faecalis ATCC29212; in the presence of 0.1 mM AOAA) | Minimum inhibitory concentration (E. faecalis ATCC29212; [4]) [µg/mL] | Minimum inhibitory concentration (E. faecalis ATCC29212; in the presence of 1 mM PAG) [µg/mL] | Minimum inhibitory concentration (E. faecium A2373; in the presence of 0.1 mM AOAA) | Minimum inhibitory concentration (E. faecium A2373; [4]) [µg/mL] | Minimum inhibitory concentration (E. faecium A2373; in the presence of 1 mM PAG) [µg/mL] | Minimum inhibitory concentration (P. aeruginosa PAO1; in the presence of 0.1 mM AOAA) [µg/mL] | Minimum inhibitory concentration (P. aeruginosa PAO1; [4]) [µg/mL] | Minimum inhibitory concentration (P. aeruginosa PAO1; in the presence of 1 mM PAG) [µg/mL] | Minimum inhibitory concentration (S. pneumoniae ATCC49619; in the presence of 0.1 mM AOAA) [µg/mL] | Minimum inhibitory concentration (S. pneumoniae ATCC49619; [4]) [µg/mL] | Minimum inhibitory concentration (S. pneumoniae ATCC49619; in the presence of 1 mM PAG) [µg/mL] | other results |
| --- | --- | --- | --- | --- | --- | --- | --- | --- | --- | --- | --- | --- | --- |
| [Na+].[SH-] [NaHS] | – | – | – | – | – | – | – | – | – | – | – | – | Inhibition of Fenton-mediated DNA damage (pBR322 plasmid DNA): completely inhibited DNA damage; Effect on hyper-induction of SOS by gentamicin (recA′::gfp E. coli): completely suppressed the hyper-induction of SOS by gentamicin; Increase in resistance to peroxide (Wt E. coli cells; NaHS 200 μM pretreatment for 1 min): > 20 times |
| NOCC(=O)O [AOAA, amino-oxyacetate] | – | – | – | – | – | – | – | – | – | – | – | – | Effect on H2S production (PbS staining) (CBS/CSE): greatly decreased or eliminated PbS staining |
| O=C(N[C@H](CO)[C@H](O)c1ccc([N+](=O)[O-])cc1)C(Cl)Cl [Chloramphenicol] | 0.5 µg/mL | 8 | 8 | 2 µg/mL | 8 | 8 | 64 | 64 | 64 | 4 | 4 | 4 | MIC (E. faecalis ATCC29212; [3]): 8 µg/mL; MIC (E. faecium A2373; [5]): 8 µg/mL; ΔsseA inhibition of growth [1]: −136; MIC (P. aeruginosa PAO1; [6]): 64 µg/mL; MIC (S. pneumoniae ATCC49619; [7]): 8 µg/mL |
| CN(C)C(=O)/N=N/C(=O)N(C)C [diamide] | – | – | – | – | – | – | – | – | – | – | – | – | Protection against Gm [2]: protected 3MST mutant cells against Gm |
| c1ccc(-c2ccccn2)nc1 [2,2′-dipyridyl] | – | – | – | – | – | – | – | – | – | – | – | – | Effect on toxicity of Gm (E. coli cells): substantially decreased the toxicity of Gm; Protection against peroxide (in words) (Wt E. coli cells; dipyridyl 0.5 mM pretreatment for 1 min): protected them rapidly against peroxide |
| CCCCCCCCCC(=O)N[C@@H](Cc1c[nH]c2ccccc12)C(=O)N[C@H](CC(N)=O)C(=O)N[C@@H](CC(=O)O)C(=O)N[C@@H]1C(=O)NCC(=O)N[C@@H](CCCN)C(=O)N[C@@H](CC(=O)O)C(=O)N[C@H](C)C(=O)N[C@@H](CC(=O)O)C(=O)NCC(=O)N[C@H](CO)C(=O)N[C@@H]([C@H](C)CC(=O)O)C(=O)N[C@@H](CC(=O)c2ccccc2N)C(=O)O[C@@H]1C [Daptomycin, daptomycin] | ≦0.06 μg/ml | 1 | 2 | ≦1 μg/ml | 4 | 2 | >64 | >64 | >64 | 0.063 | 0.125 | 0.125 | MIC (E. faecalis ATCC29212; [3]): 2 µg/mL; MIC (E. faecium A2373; [5]): 4 µg/mL; MIC (P. aeruginosa PAO1; [6]): > 64 µg/mL; MIC (S. pneumoniae ATCC49619; [7]): 0.125 µg/mL |
| CCN1CCN(C(=O)N[C@@H](C(=O)N[C@@H]2C(=O)N3[C@@H]2SC(C)(C)[C@@H]3C(=O)O)c2ccccc2)C(=O)C1=O [Piperacilin, piperacillin] | 0.25 µg/mL | 1 | 2 | 6 µg/mL | >64 | >64 | 4 | 4 | 4 | 0.25 | 0.5 | 0.5 | Minimum inhibitory concentration (E. faecalis ATCC29212; antibiotic alone): 2 µg/mL; Minimum inhibitory concentration (E. faecium A2373; antibiotic alone): >64 µg/mL; Minimum inhibitory concentration (P. aeruginosa PAO1; antibiotic alone): 4 µg/mL; Minimum inhibitory concentration (S. pneumoniae ATCC49619; antibiotic alone): 0.5 µg/mL |
| CO/N=C(\C(=O)N[C@@H]1C(=O)N2C(C(=O)[O-])=C(C[N+]3(C)CCCC3)CS[C@H]12)c1csc(N)n1 [Cetepine, cefepime] | 2 µg/mL | 8 | 32 | >64 µg/mL | >64 | >64 | 2 | 1 | 2 | 0.125 | 0.125 | 0.125 | Minimum inhibitory concentration (E. faecalis ATCC29212; antibiotic alone): 32 µg/mL; Minimum inhibitory concentration (E. faecium A2373; antibiotic alone): >64 µg/mL; Minimum inhibitory concentration (P. aeruginosa PAO1; antibiotic alone): 2 µg/mL; Minimum inhibitory concentration (S. pneumoniae ATCC49619; antibiotic alone): 0.125 µg/mL |
| C#CCC(N)C(=O)O (racemic) [PAG, D,L-propargylglycine] | – | – | – | – | – | – | – | – | – | – | – | – | Effect on H2S production (PbS staining) (CBS/CSE): greatly decreased or eliminated PbS staining |
| C[C@H]1COc2c(N3CCN(C)CC3)c(F)cc3c(=O)c(C(=O)O)cn1c23 [Levoflaxacin, levofloxacin] | 0.125 µg/mL | 0.5 | 1 | 2 µg/mL | 2 | 2 | 0.5 | 0.5 | 0.5 | 0.5 | 0.5 | 1 | MIC (E. faecalis ATCC29212; [3]): 1 µg/mL; MIC (E. faecium A2373; [5]): 2 µg/mL; MIC (P. aeruginosa PAO1; [6]): 0.5 µg/mL; MIC (S. pneumoniae ATCC49619; [7]): 2 µg/mL |
| CN[C@H](CC(C)C)C(=O)N[C@H]1C(=O)N[C@@H](CC(N)=O)C(=O)N[C@H]2C(=O)N[C@H]3C(=O)N[C@H](C(=O)N[C@H](C(=O)O)c4cc(O)cc(O)c4-c4cc3ccc4O)[C@H](O)c3ccc(c(Cl)c3)Oc3cc2cc(c3O[C@@H]2O[C@H](CO)[C@@H](O)[C@H](O)[C@H]2O[C@H]2C[C@](C)(N)[C@H](O)[C@H](C)O2)Oc2ccc(cc2Cl)[C@H]1O [Vancomycin] | 1 µg/mL | 2 | 2 | 2 µg/mL | >64 | >64 | >64 | >64 | >64 | 0.125 | 0.125 | 0.125 | MIC (E. faecalis ATCC29212; ATCC29212, read-out: Minimum inhibitory concentration): 2 µg/mL; MIC (E. faecium A2373; A2373, read-out: Minimum inhibitory concentration): > 64 µg/mL; ΔsseA inhibition of growth [1]: −198; MIC (P. aeruginosa PAO1; PAO1, read-out: Minimum inhibitory concentration): > 64 µg/mL; MIC (S. pneumoniae ATCC49619; ATCC49619, read-out: Minimum inhibitory concentration): 0.125 µg/mL |
| gentamicin | 1 µg/mL | 4 | 32 | >64 µg/mL | >64 | >64 | 2 | 4 | 2 | 8 | 16 | 32 | Minimum inhibitory concentration (E. faecalis ATCC29212; antibiotic alone): 32 µg/mL; Minimum inhibitory concentration (E. faecium A2373; antibiotic alone): >64 µg/mL; Minimum inhibitory concentration (P. aeruginosa PAO1; antibiotic alone): 2 µg/mL; Minimum inhibitory concentration (S. pneumoniae ATCC49619; antibiotic alone): 32 µg/mL |
